In patent US20120039820A1 (Glaxo Group Limited, priority 2009, published 2012):

Legend:
Staphylococcus aureus = experiment: MIC test (broth microdilution, turbidity); format: cell-based; conditions: TSB, 37° C., 24 hours
Procedure: (§1) The MIC of a material composition was determined by the following method. A fresh culture of the test inoculum of each bacterium was diluted in sterile 0.1% special peptone solution to give a concentration of approximately 10^6 colony forming units (cfu) per ml. Test samples of material were diluted in sterile tryptone soya broth (TSB) to give an initial stock solution, typically of 1% or 2% (10,000 or 20,000 ppm). However, it will be appreciated that the concentration of the initial stock solution of material can be varied if desired to investigate a different range of concentrations. Each row of a standard, 96-well plastic microtitre plate (labelled A-H) was allocated to one sample, i. e. eight samples per plate. Row H contained only TSB for use as a bacterial control to indicate the degree of turbidity resulting from bacterial growth in the absence of any test material.
(§2) Aseptically, 200 μl of the initial dilution of material was transferred to the 1st and 7th well of the appropriate row. All other test wells were filled with 100 μl of sterile TSB using an 8- channel micro-pipette. The contents of each of the wells in column 1 were mixed by sucking samples up and down the pipette tips, before 100 μl was transferred to column 2.
(§3) The same sterile pipette tips were used to transfer 100 μl of each well in column 7 into the appropriate well in column 8. This set of eight tips was then discarded into disinfectant solution. Using eight fresh, sterile tips the process was repeated by transferring 100 μl from column 2 into column 3 (and into 8 and 9). The process was continued until all the wells in columns 6 and 12 contained 200 μl. After mixing, 100 μl was discarded from wells in columns 6 and 12 to waste. Finally, 100 μl of pre-diluted bacterial test culture (approx 10^6 cfu/ml) was added, thus giving a final volume of 200 μl in each well.
(§4) A blank plate was prepared for each set of eight samples in exactly the same way, except that 100 μl of sterile TSB was added instead of the bacterial culture. This plate was used as the control plate against which the test plate (s) could be read.
(§5) Test and control plates were then sealed using autoclave tape and incubated at 37° C. for 24 hours. The wells were examined after 24 hours for turbidity to determine if the material had inhibited growth or not. Plates are then read in a suitable microtitre plate reader at an absorbance of 540 nm as a measure of turbidity resulting from bacterial growth. The control, un-inoculated plate for each set of samples was read first, and the plate reader then programmed to use the control readings to blank all other plate readings for the inoculated plates for the same set of test materials (i. e. removing turbidity due to material and possible colour changes during incubation). Thus, the corrected readings generated were absorbances resulting from turbidity from bacterial growth.

Streptococcus mutans = experiment: MIC test (broth microdilution, turbidity); format: cell-based; conditions: TSB, 37° C., 24 hours
Procedure: as §1, §2, §3, §4, §5

Escherichia coli = experiment: MIC test (broth microdilution, turbidity); format: cell-based; conditions: TSB, 37° C., 24 hours
Procedure: as §1, §2, §3, §4, §5

S. aureus = experiment: Kill time suspension test; format: cell-based, Staphylococcus aureus
Procedure: This is set aside for approximately 2 minutes. 8 ml of test product is added, a timing clock started and immediately vortexed for 5 seconds.
To 8 ml of ‘Test Sample’ add 1 ml of sterile purified water and 1 ml of synthetic saliva. This is the ‘validation solution’.
The mean number of survivors is calculated for the each test and appropriate control samples, and expressed as the log to the base 10 (Log count).

| Molecule | MIC (Staphylococcus aureus) | MIC (Streptococcus mutans) | MIC (Escherichia coli) | kill (in words) (S. aureus) |
| --- | --- | --- | --- | --- |
| zinc gluconate [Zn Gluconate] | 6250 parts per million | 6250 parts per million | 1560 parts per million | ineffective |
| Cc1cc(O)ccc1C(C)C [IPMP, 4-isopropyl-3-methylphenol] | 156 parts per million | 1250 parts per million | 312 parts per million |  |
